Results as given in article PMC12615753, “Glutathione as a taste modulator: molecular mechanisms of interaction with umami and sweet taste receptors” (Food Chemistry: Molecular Sciences, 2025).

Biological target: T1, hTAS1R1 D192A/rTAS1R3 (UniProt Q7RTX1+Q923K1, D192A)
T1 construct: UniProtKB number Q7RTX1–1); The cDNA coding region of rTAS1R3 was synthesized with optimized-codon usage for human expression; expressed in transfected cells; host or cells: HEK293T/17
T1 sequence (Q7RTX1 21-841 D192A): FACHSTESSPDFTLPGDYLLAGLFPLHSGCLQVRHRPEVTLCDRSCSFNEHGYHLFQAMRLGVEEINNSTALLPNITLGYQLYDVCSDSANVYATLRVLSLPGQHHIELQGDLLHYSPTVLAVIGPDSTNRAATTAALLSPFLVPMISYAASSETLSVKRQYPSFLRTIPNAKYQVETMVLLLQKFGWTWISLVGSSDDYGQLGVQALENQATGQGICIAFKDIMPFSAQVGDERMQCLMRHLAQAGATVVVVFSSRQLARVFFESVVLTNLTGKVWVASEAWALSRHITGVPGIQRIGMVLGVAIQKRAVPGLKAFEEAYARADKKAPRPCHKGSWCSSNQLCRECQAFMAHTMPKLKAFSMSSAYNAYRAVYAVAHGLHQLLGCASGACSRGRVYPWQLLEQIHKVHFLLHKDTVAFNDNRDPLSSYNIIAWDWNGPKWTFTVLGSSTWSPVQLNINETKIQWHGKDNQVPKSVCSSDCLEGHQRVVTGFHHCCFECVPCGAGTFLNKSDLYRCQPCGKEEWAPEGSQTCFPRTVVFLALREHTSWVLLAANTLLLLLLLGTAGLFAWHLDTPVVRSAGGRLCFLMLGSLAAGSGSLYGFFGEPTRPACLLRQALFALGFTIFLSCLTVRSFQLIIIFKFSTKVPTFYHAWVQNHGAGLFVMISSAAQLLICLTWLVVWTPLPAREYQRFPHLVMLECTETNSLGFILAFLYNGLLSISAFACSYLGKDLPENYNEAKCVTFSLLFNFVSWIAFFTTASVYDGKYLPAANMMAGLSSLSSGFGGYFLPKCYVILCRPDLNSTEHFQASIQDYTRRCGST
T1 sequence (Q923K1 21-858): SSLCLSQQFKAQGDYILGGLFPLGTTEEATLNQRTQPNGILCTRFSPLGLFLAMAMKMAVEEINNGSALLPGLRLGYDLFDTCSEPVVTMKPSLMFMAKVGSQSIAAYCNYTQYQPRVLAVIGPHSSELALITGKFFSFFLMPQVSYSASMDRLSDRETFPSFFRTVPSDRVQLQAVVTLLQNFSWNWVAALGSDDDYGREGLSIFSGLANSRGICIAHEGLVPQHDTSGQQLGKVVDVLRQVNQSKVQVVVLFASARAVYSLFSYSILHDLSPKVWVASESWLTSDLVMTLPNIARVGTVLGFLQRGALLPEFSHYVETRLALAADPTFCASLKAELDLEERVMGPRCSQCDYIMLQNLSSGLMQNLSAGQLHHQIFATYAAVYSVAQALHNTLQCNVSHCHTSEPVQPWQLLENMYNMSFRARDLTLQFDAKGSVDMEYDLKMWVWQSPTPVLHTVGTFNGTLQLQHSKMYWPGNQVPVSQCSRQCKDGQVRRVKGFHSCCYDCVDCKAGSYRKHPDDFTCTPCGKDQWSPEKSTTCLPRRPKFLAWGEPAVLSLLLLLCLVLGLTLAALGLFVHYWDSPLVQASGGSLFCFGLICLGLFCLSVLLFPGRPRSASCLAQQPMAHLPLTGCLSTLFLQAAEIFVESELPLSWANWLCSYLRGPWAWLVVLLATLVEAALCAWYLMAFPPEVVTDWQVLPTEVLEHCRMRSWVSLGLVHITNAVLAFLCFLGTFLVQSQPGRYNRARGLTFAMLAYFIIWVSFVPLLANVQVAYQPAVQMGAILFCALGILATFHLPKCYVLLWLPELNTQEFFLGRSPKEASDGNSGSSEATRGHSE
Assay: cell-based
Format: cell-based, human, rat
Text: Chimeric Gα proteins, such as Gα16Gust44, Gα16Gi3 or Gα15i2, are widely used in the functional expression of TAS1R receptors ([Backes et al., 2015]; [Suess et al., 2015]; [Toda et al., 2021], [Toda et al., 2013], [Toda et al., 2018]; [Zhang et al., 2008]). Chimeric Gα15i2 (([Toda et al., 2013]), Supplementary data) was generated by replacing the last five residues of the C-terminal tail of rat Gα15i2 (EINLL) (UniProt number G3V6N8; https://www.uniprot.org/uniprot/) with the counterpart sequence from human GNAI2 (DCGLF) (UniProt number P04899-1) and cloning into the pcDNA3.1/Hygro vector (Invitrogen, Thermo Fisher Scientific, Illkirch, France) between the HindIII and NotI restriction sites, resulting in the plasmid pcDNA3.1-Gα15i2. Chimeric Gα16Gust44 construct have already been reported ([Raliou et al., 2011]). Briefly, Gα16Gust44 was generated by replacing the C-terminal of Gα16 with the C-terminal 44 residues of gustducin. As previously described, hTAS1R1 was amplified from human fungiform papillae cDNA and cloned and inserted into pcDNA3 (Invitrogen), generating pcDNA3-TAS1R1-WT (wild-type) ([Raliou et al., 2011]). […] The cDNA coding region of rTAS1R3 was synthesized with optimized-codon usage for human expression (Genewiz) and was cloned and inserted into the mammalian pcDNA4/myc-HisA (Invitrogen) expression vector between the EcoRI and NotI restriction sites, resulting in the plasmid pcDNA4-rTAS1R3. […] The sequence integrity of all the plasmid constructs was verified via automated DNA sequencing (Genewiz).
The hTAS1R1 mutants were co-expressed with the rTAS1R3 subunit in HEK293 cells. […] As a control, the functionality of the mutated receptors was checked after stimulation with S807 (Fig. S8), which interacts with TAS1R1-TMD ([Zhang et al., 2008]).

For `N[C@@H](CCC(=O)N[C@@H](CS)C(=O)NCC(=O)O)C(=O)O` [GSH, γ-L-glutamyl-L-cysteinyl-glycine], the EC50 was 3.25 ± 0.061 mM, the “effect of the added compound (1 mM) on the response to L-Glu” value (D192A) was “synergy was observed” and the “response to the agonist alone, vs WT” value (D192A) was “significantly increased the initial amplitude”. The “Max ∆F/F0” value (D192A, GSH) was 0.65 ± 0.01 and the “R1 = mutant EC50/WT EC50” value (D192A, GSH) was 1.3.
